Here are results for 59 compounds from the METLIN SMRT retention time set (Domingo-Almenara et al. 2019).

The nature of the data set: gradient 5% acetonitrile 3 min, to 50% in 2 min, to 85% in 15 min, held 3 min, 100 µL/min. The settings on record: column: Zorbax Extend-C18 2.1 x 50 mm; eluents: water / acetonitrile, 0.1% formic acid. The method in brief: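 Retention time was recorded from adduct peaks, which were picked computationally and each inspected manually. Pure standards ran in mixtures of ~100 molecules on HPLC coupled to a quadrupole time-of-flight mass spectrometer, in positive and negative ionization mode, through a Zorbax Extend-C18 column (2.1 × 50 mm, 1.8 μm) at 100 μL/min. Eluents were water and acetonitrile, each with 0.1% formic acid.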
For the compound `Cc1noc(C)c1CC(=O)NCc1cc(-c2ccc3c(c2)OCO3)on1`, the RP-LC retention time was determined as 689 s.

`O=C(CN1C(=O)C2CCCN2C(=O)c2ccccc21)c1ccc(Br)cc1` (centres undefined) displayed an RP-LC retention time of 823 s.

The compound `CCNC(=O)N1CCc2c(c(-c3nc(-c4ccccc4)no3)nn2C)C1` registered an RP-LC retention time of 787 s.

The compound `CCNC(=O)c1nc(C(=O)NCc2ccc(F)cc2F)cs1` returned an RP-LC retention time of 780 s.

For `Cc1ccc(-c2noc(Cn3nc(-c4ccc5c(c4)OCO5)ccc3=O)n2)cc1C`, the RP-LC retention time was determined as 1060 s.

`Cc1noc(-c2cccn2Cc2cccc(F)c2)n1`: the RP-LC retention time was determined as 962 s.

The compound `CCN1CCn2cc(S(=O)(=O)Nc3cccc(C)c3C)cc2C1=O` displayed an RP-LC retention time of 729 s.

The compound `CC(C)(C)c1csc(-c2csc(S(=O)(=O)NCc3ccccc3Cl)c2)n1` registered an RP-LC retention time of 1300 s.

`CCc1cccc2c3c([nH]c12)[C@@](CC)(CC(=O)O)OCC3` gave an RP-LC retention time of 925 s.

With `CC(C)CN1CCN(S(=O)(=O)c2ccc(-c3nnc(C4CCCC4)o3)o2)CC1`, the RP-LC retention time was 692 s.

Regarding `CCOC(=O)c1nc(SC)n(C)c1C(=O)OCC`, the RP-LC retention time stood at 834 s.

On to `CC(=O)N1c2ccc(S(=O)(=O)N3CCCC3)cc2CC1C(=O)NCCCN1CCCCC1` (centres undefined), for which the RP-LC retention time is 626 s.

`COC(=O)c1cccc(NC(=O)Nc2ccc3c(c2)N(C(=O)c2ccccc2)CC3)c1` showed an RP-LC retention time of 921 s.

Regarding `CCC(C)c1ccc(-c2csc(NC(C)=O)n2)cc1` (centres undefined), the RP-LC retention time is 1030 s.

Regarding `O=C(Cc1cccc(C(F)(F)F)c1)Nc1cnn(-c2ncc(N3CCCC3)cn2)c1`, the RP-LC retention time stood at 907 s.

`CC1CN2C=NC(N3CCN(C(=O)Nc4ccccc4C(F)(F)F)CC3)=CC2=N1` (centres undefined): the RP-LC retention time stood at 616 s.

With `COc1ccccc1N1CCN(S(=O)(=O)c2ccc(F)cc2C)CC1`, the RP-LC retention time is 1010 s.

Regarding `Cc1ccc(C(=O)N2C[C@@H]3C[C@H]2C[C@@H]3NS(=O)(=O)c2cccs2)cc1F`, the RP-LC retention time was determined as 827 s.

Consider `COCCCNC(=O)C1c2ccccc2CC(=O)N1Cc1ccccc1` (centres undefined), for which the RP-LC retention time amounted to 789 s.

`COCC(=O)NC1CCC12CCN(C(=O)C1CCOCC1)CC2` (centres undefined) gave an RP-LC retention time of 603 s.

Consider `O=C(Cn1nc2c(N3CCCCCC3)nccn2c1=O)Nc1ccc2c(c1)OCO2`, for which the RP-LC retention time worked out at 667 s.

The compound `Cc1ccc(N2C=C(C(=O)N3CCOCC3)S(=O)(=O)c3ccc(F)cc32)cc1F` registered an RP-LC retention time of 822 s.

In the case of `O=C(Nc1nccs1)C1CCN(C(=O)c2ccc([N+](=O)[O-])o2)CC1`, the RP-LC retention time turned out to be 658 s.

`CCOc1ccccc1C(=O)NCC1CCN(C(=O)c2ccccc2F)CC1` returned an RP-LC retention time of 756 s.

The compound `COc1ccc(-c2noc(NC3CCCC3)n2)cc1` came in with an RP-LC retention time of 951 s.

Consider `O=C(Nc1nccnc1C(=O)NC1CC1)c1ccccc1`, for which the RP-LC retention time came out at 732 s.

`Cc1c(Cl)cccc1S(=O)(=O)N1CCc2c(c(-c3nnc(-c4ccccc4F)o3)nn2C)C1` showed an RP-LC retention time of 1050 s.

Consider `CCOC(=O)N1CCN(c2cc(C(=O)O)c3cc(NC(=O)COc4ccccc4)ccc3n2)CC1`, for which the RP-LC retention time stood at 629 s.

Compound `COc1cccc(NC(=O)[C@H]2[C@@H](c3cc(OC)c(OC)c(OC)c3)c3cc4c(cc3[C@@H](O)[C@@H]2CO)OCO4)c1` returned an RP-LC retention time of 704 s.

`CC(NC(=O)C1CCN(C(=O)c2ncn3c2COC(c2ccc(Cl)cc2)C3)CC1)c1ccccc1` (centres undefined) had an RP-LC retention time of 854 s.

The compound `CC(C)CCNc1nc(-c2ccc(Cl)cc2)nc2ccccc12` showed an RP-LC retention time of 932 s.

Consider `COc1cc(-c2nnc(C)o2)ccc1C`, for which the RP-LC retention time turned out to be 828 s.

As for `Cc1cc(Br)ccc1NC(=O)Cn1cnc2c(nc3n2CCCCC3)c1=O`, the RP-LC retention time was 711 s.

`COc1cc(OC)c(NC(=O)Cn2c(N(C)Cc3ccccc3)nc(C)cc2=O)cc1Cl` returned an RP-LC retention time of 818 s.

`O=C(Nc1cc(-c2ccccc2)[nH]n1)c1ccc(Cl)cc1` returned an RP-LC retention time of 925 s.

Regarding `CCc1cc(N2CCN(C(=O)c3ccc(N(C)C)cc3)CC2)nc2nncn12`, the RP-LC retention time was 586 s.

`Cc1nc2nc(-c3ccccc3)nn2c(C)c1CC(=O)N1CCCCC1` returned an RP-LC retention time of 735 s.

In turn, `Cc1cccc(CN2CCCn3nc(C(=O)NCCN4CCOCC4)cc3C2=O)c1` showed an RP-LC retention time of 621 s.

Regarding `COc1ccc(NC(=O)C2c3ccccc3C(=O)N3CCc4ccccc4C23)cc1OC` (centres undefined), the RP-LC retention time is 762 s.

In turn, `COC(=O)c1cnc2nc(C)ccc2c1Nc1cc(F)ccc1C` showed an RP-LC retention time of 689 s.

In the case of `Cc1cc(=O)n(CC(=O)N(C)C2CCCCC2)c(N2CCOCC2)n1`, the RP-LC retention time was 656 s.

Compound `Cc1c(C)n(-c2ccc(Cl)cc2)c2ncn(CC(=O)NCc3ccco3)c(=O)c12` returned an RP-LC retention time of 868 s.

In the case of `COC(=O)c1ccc(NC(=O)CSc2nnc3c4cc(-c5ccccc5)nn4ccn23)cc1`, the RP-LC retention time stood at 1060 s.

On to `O=C(NC1CCCCC1)C1CCCN(c2ncnc3c2oc2ccccc23)C1` (centres undefined), for which the RP-LC retention time turned out to be 758 s.

Take `CCN1CCN(C(=O)C2CC(c3ccccc3)=NO2)CC1` (centres undefined): the RP-LC retention time was 593 s.

Regarding `O=S(=O)(c1ccc(Br)cc1)N1CCCC1c1nc(-c2ccc(F)cc2)no1` (centres undefined), the RP-LC retention time worked out at 1160 s.

As to `O=C(Nc1cc(F)ccc1F)c1ccc(=O)n(Cc2cccc(C(F)(F)F)c2)c1`, the RP-LC retention time was 861 s.

`CC(C)c1ccc(OCC(=O)NCCS(=O)(=O)N2CCN(c3ncccn3)CC2)cc1`: the RP-LC retention time was found to be 856 s.

Regarding `Cc1ccsc1CN1CCc2nc(N3CCN(c4ccccc4F)CC3)ncc2C1`, the RP-LC retention time is 780 s.

In turn, `N#CCCSc1ccccc1NC(=O)c1ccc(S(=O)(=O)N2CCCCCC2)cc1` registered an RP-LC retention time of 946 s.

Consider `O=C(c1cccc(Br)c1)N1CCN(CCn2cccn2)CC1`, for which the RP-LC retention time was found to be 554 s.

`COc1ccc(-c2nc(-c3cccc(-c4ccnn4C)c3)no2)c(OC)c1` returned an RP-LC retention time of 1030 s.

For `CCCc1c(C(=O)O)nnn1-c1ccc(OC)c(Cl)c1`, the RP-LC retention time was found to be 773 s.

In turn, `CCCOc1ccnc2c1c(=O)n(CC(=O)Nc1cc(C)on1)c(=O)n2C` came in with an RP-LC retention time of 675 s.

The compound `Cc1ccc(NC(=O)N2CCC(n3c(-c4ccco4)nc4cccnc43)C2)cc1F` (centres undefined) had an RP-LC retention time of 815 s.

On to `COc1ccc(C(=O)Nc2nnc(SCc3nnc(-c4ccccc4)o3)s2)cc1`, for which the RP-LC retention time was found to be 899 s.

The compound `CCOc1cccc(CNC(=O)c2cnc(-c3ccccc3)nc2-c2ccncc2)c1` returned an RP-LC retention time of 855 s.

Consider `COc1ccc(NC(=O)Cn2c(=O)n(-c3ccccc3)c3ncccc32)cc1OC`, for which the RP-LC retention time was determined as 729 s.

Regarding `COC(=O)c1cc(S(=O)(=O)N2CCCC2C(=O)Nc2ccc(F)cc2)cn1C` (centres undefined), the RP-LC retention time is 830 s.
